Earlier results on five compounds are cited in US20190183792A1, “COMPOSITION AND METHOD FOR TREATING HERPESVIRUS IN MAMMALS” (VELOCE BIOPHARMA, LLC, priority 2016, published 2019).

Series [1] deals with Feline Herpesvirus. Conditions: research by Nasisse.
In series [2] the test system is Human herpes simplex virus.
The subject of series [3] is ocular herpesvirus infection. Conditions: canine models in vivo.
For series [4] the following is noted: compared among the antivirals.

`Nc1nc2c(ncn2COCCO)c(=O)[nH]1` [Acyclovir]: the “effectiveness against Feline Herpesvirus (rank order)” value (“effectiveness … (rank order)” for short) in series [1] is reported as “not effective”. The “effectiveness against Human herpes simplex virus” value in series [2] was “most effective”.

Regarding `Nc1ccn(C[C@@H](CO)OCP(=O)(O)O)c(=O)n1` [Cidofovir], in series [3], the local ocular toxicity entry is on record as “local ocular toxicity is significant” and the viral shedding entry is given as “decrease viral shedding”.

Take `Nc1ncnc2c1ncn2[C@@H]1O[C@H](CO)[C@@H](O)[C@@H]1O` [Adenine Arabinoside]: in series [1], the “effectiveness … (rank order)” value is on record as “then Adenine Arabinoside”.

Take `O=c1[nH]c(=O)n([C@H]2C[C@H](O)[C@@H](CO)O2)cc1C(F)(F)F` [Triflurothymidine]: in series [1], the “effectiveness … (rank order)” value is recorded as “most effective”. In addition, in series [4], the effectiveness result was “most effective”, the solubility entry is on record as “most soluble” and the toxicity result is listed as “least toxic”.

For the compound `O=c1[nH]c(=O)n([C@H]2C[C@H](O)[C@@H](CO)O2)cc1I` [Idoxuridine], the solubility result in series [4] was “poorly soluble”.
